Reference: ChEMBL document CHEMBL1152374, “Regioselective synthesis of methylated epigallocatechin gallate via nitrobenzenesulfonyl (Ns) protecting group” (Bioorg Med Chem Lett, 2009)

What was measured:
[1] = molecular target: 72 kDa type IV collagenase (Homo sapiens, UniProt P08253); test: Inhibition of human recombinant MMP2 expressed in Escherichia coli by fluorogenic peptide cleavage assay
[2] = molecular target: Matrix metalloproteinase-14 (Homo sapiens, UniProt P50281); test: Inhibition of human recombinant MT1-MMP expressed in Escherichia coli by fluorogenic peptide cleavage assay
Matrilysin = molecular target: T1, Matrilysin (Homo sapiens, UniProt P09237); test: Inhibition of human recombinant MMP7 expressed in Escherichia coli by fluorogenic peptide cleavage assay
T1 sequence (P09237 whole entry): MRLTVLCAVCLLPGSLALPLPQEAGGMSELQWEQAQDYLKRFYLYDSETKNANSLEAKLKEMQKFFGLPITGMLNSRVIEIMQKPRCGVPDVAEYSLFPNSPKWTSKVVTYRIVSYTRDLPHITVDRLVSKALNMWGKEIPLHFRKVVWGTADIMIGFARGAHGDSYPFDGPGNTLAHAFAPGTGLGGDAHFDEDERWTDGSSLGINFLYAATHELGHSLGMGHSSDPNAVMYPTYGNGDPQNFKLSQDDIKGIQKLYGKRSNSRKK

Chain of 72 kDa type IV collagenase (P08253 whole entry): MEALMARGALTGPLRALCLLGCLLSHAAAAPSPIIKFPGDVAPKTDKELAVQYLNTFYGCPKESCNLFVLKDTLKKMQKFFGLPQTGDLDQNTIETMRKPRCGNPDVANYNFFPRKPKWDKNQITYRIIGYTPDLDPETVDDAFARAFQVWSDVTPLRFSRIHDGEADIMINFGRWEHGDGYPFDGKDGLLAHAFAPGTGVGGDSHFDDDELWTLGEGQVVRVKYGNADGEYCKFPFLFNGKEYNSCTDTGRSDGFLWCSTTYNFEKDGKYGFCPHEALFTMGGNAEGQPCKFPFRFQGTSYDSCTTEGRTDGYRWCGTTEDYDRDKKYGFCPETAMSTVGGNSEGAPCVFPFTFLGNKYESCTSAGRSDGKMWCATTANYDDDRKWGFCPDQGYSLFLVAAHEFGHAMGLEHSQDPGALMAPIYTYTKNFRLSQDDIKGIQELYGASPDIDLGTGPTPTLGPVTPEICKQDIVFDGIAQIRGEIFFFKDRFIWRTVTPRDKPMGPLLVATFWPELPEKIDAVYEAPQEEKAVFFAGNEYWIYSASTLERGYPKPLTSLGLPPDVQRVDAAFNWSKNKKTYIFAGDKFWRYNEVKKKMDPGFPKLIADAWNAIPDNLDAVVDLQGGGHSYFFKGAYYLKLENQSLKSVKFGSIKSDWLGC

| SMILES | IC50 [1] | IC50 [2] | IC50 (Matrilysin) |
| --- | --- | --- | --- |
| COc1c(O)cc(C(=O)O[C@@H]2Cc3c(O)cc(O)cc3O[C@H]2c2cc(O)c(O)c(O)c2)cc1O | 19 µM | 10.5 µM | 32 µM |
| COc1cc(C(=O)O[C@@H]2Cc3c(O)cc(O)cc3O[C@@H]2c2cc(O)c(O)c(O)c2)cc(O)c1O | 8.7 µM | 1.7 µM | 20 µM |
| COc1c(O)cc(C(=O)O[C@@H]2Cc3c(O)cc(O)cc3O[C@@H]2c2cc(O)c(O)c(O)c2)cc1O | 18.7 µM | 12.5 µM | 72 µM |
| O=C(O[C@@H]1Cc2c(O)cc(O)cc2O[C@@H]1c1cc(O)c(O)c(O)c1)c1cc(O)c(O)c(O)c1 [EPIGALOCATECHIN GALLATE] | 9.6 µM | 6.8 µM | 21.5 µM |
| COc1cc(C(=O)O[C@@H]2Cc3c(O)cc(O)cc3O[C@H]2c2cc(O)c(O)c(O)c2)cc(O)c1O | 5.4 µM | 3.1 µM | 20 µM |

The next lines start with the values.

| IC50 [1] | IC50 [2] | IC50 (Matrilysin) | SMILES |
| --- | --- | --- | --- |
| 88 µM | 15.6 µM | > 100 µM | COc1cc(C(=O)O[C@@H]2Cc3c(O)cc(O)cc3O[C@@H]2c2ccc(O)c(O)c2)cc(O)c1O |
| 34 µM | 3.7 µM | > 100 µM | COc1c(O)cc(C(=O)O[C@@H]2Cc3c(O)cc(O)cc3O[C@@H]2c2ccc(O)c(O)c2)cc1O |
| 28 µM | 52 µM | > 100 µM | COc1cc(C(=O)O[C@H]2Cc3c(O)cc(O)cc3O[C@@H]2c2ccc(O)c(O)c2)cc(O)c1O |
| 22 µM | > 100 µM | > 100 µM | COc1c(O)cc(C(=O)O[C@H]2Cc3c(O)cc(O)cc3O[C@@H]2c2ccc(O)c(O)c2)cc1O |
